From patent US20240308956A1, “LIPOPHILIC LITHIUM SALTS FOR DIRECT DISSOLUTION IN ORGANIC SCINTILLATORS” (Lawrence Livermore National Security, LLC, priority 2022, published 2024)

Legend:
[1] = without surfactant; cited from earlier work
[2] = Long-term stability of loaded solutions to precipitation; assay type: physicochemical
Method: (§1) Majority of tested compositions were prepared with ˜0.1 wt. % of atomic ^6Li, although a possibility of higher concentrations was also tested for some efficient formulations. For liquid preparations, solid constituents weighed in vials or glass jars at ambient condition were vacuumed and transferred into the nitrogen-filled glove box, where liquid components (EJ-309, DIPN, Tx-100, and IBA) were added for dissolution. Solutions were left to stirred overnight to reach equilibrium, then transferred into the quartz cuvettes, sealed, and removed from the glovebox. Unless indicated otherwise, measurements were made in small cylindrical cuvettes of Ø2 cm×1 cm in dimensions. For approximate evaluation of the attenuation, solutions of interest were also prepared and measured at larger scale in 2″×2″ (Ø5.1 cm×5.1 cm) quartz cuvettes.

[3] = Solubility of lipophilic salts in liquids; assay type: physicochemical
Method: as §1

Compound: O=C([O-])c1cccc(-c2ccccc2)c1O.[6Li+] [^6LiPSA]
- solubility in aromatics [1]: slightly soluble

Compound: CC(C)CC(=O)[O-].[6Li+] [^6LiIVA, reference compound]
- stability of solutions ([2]; single dye solutions in 90:10 DIPN:IBA): highly stable
- precipitation or LO degradation on storage ([2]; single dye solutions in 95:5 DIPN:IBA, sealed samples, ~1 year of observations): no precipitation or LO degradation

Compound: CCCCC(CC)COC(=O)CC(C(=O)OCC(CC)CCCC)S(=O)(=O)[O-].[Li+] (centres unmarked) [^6LiDOSS, lithium 1,4-bis(2-ethylhexoxy)-1,4-dioxobutane-2-sulfonate]
- solubility of the compound in DIPN ([3]; DIPN, studies of long-term stability): about 20 wt. %
- solubility in organic fluids ([3]; organic fluids, of total scintillator): about 50 wt. %
- solubility of the compound ([3]; without any additional dyes): up to 40 wt. %
- ^6Li concentration at which solutions are stable to solid precipitation ([2]; solution containing 0.5 wt. % of E404): ≤ 0.3 wt. % ^6Li
- stability to long-term precipitation ([2]; solutions containing 0.2 wt. % of atomic lithium): stable to long-term precipitation
